Data published in EP4810040A2, “INHIBITORS OF APOL1 AND METHODS OF USING SAME” (priority 2020, dated 2022).

Tests used:
APOL1 G1 [1] = biological target: T1, APOL1 G1 (Homo sapiens, UniProt O14791, I384M/S342G); test: MultiTox-Fluor Multiplex Cytotoxicity Assay, tet-inducible APOL1 G1 T-REx-HEK293 cells; format: cell-based; parameters: expressed in transfected cells; host or cells: T-REx HEK293, clone G1 DC3.25 (pAAVS1-Puro-APOL1 G1); details: Multi-Tox Assay; for IC50: IP50 = IC50 for cell proliferation, APOL1 variant not given; for IC90: APOL1 variant (G0/G1/G2) of the HEK293 cells not given, read-out: Multi-Tox Assay IC90
T1 sequence (O14791 28-398 S342G/I384M): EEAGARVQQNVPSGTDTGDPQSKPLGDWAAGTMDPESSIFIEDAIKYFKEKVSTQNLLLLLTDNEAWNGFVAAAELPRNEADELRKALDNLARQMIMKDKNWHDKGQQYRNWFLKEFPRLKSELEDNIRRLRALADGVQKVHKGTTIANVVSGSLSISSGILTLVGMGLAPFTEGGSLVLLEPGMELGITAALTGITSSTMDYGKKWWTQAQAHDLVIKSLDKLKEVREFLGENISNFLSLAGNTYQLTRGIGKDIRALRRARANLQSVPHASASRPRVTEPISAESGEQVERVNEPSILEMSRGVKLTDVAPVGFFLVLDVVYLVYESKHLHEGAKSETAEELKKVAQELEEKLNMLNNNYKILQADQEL
Method in brief: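 Over 24 h at 37 °C, compounds (10-point 3-fold series from 10 µM, duplicate) were co-incubated with 50 ng/mL tetracycline inducing APOL1 G1 in T-REx-HEK293 cells. Viability/cytotoxicity measured by MultiTox-Fluor as dead-to-live fluorescence ratio, expressed as percent of control between uninduced and induced wells and fitted.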

APOL1 G1 [2] = biological target: T1, APOL1 G1; test: Trypanosoma brucei brucei Lysis Assay Using APOL1 Recombinant Protein (AlamarBlue viability readout); format: cell-based; details: IP50 = IC50 for cell proliferation; Trypanosome Assay
Description: Trypanosoma brucei brucei is a blood stream parasite to which human, gorillas, and baboons are immune due to the presence of the APOL1 protein in their HDL particles. The protein is uptaken by the parasite via the TbHpHb receptor located in its flagellar pocket and is bonded by the Hpr protein contained in the HDL particles which triggers the receptor endocytosis by the parasite.
Following endocytosis, the formed vesicle containing the HDL particle matures from early to late endosome, and subsequently to lysosome. The concomitant pH change in the lumen of the vesicle triggers the insertion of the APOL1 protein into the membrane of the late endosome/lysosome and hereby triggers lysosomal membrane permeabilization and as a further downstream event, trypanosome lysis. Trypanosoma brucei brucei is sensitive to lysis by all three APOL1 variants (G0, G1, and G2).
The Trypanosoma brucei brucei lysis assay is a lysis assay of the parasite using recombinant APOL1 protein variant followed by a fluorescent detection method of viability by the addition of AlamarBlue reagent to the assay well, a general metabolic redox indicator (AlamarBlue assay).
Briefly, the AlamarBlue active compound, resazurin, a blue, water soluble, non-toxic and cell permeable molecule, which can be followed by absorbance, is reduced by various metabolic pathways into resorufin, a red compound which can be followed by either absorbance or fluorescence. The assay allows the calculation of the percent viability (percent of living Trypanosomes remaining in each well) at the end of a lysis relative to the untreated condition by interpolation of fluorescent values (FLU) on a standard curve with a known amount of seeded trypanosome/well.
Trypanosoma brucei brucei (ATCC, Cat. No. PRA-382) • o Lister 427 VSG 221 bloodstream form.
Assay Ready Plates (ARPs) ∘ ARPs comes in two formats: • […] final top concentration with a 2.5 fold dilution down. • 5 mM final top concentration with a 3 fold dilution down. • ▪ Both have a 10 point Dose response. • ▪ 0.1% DMSO final in the Black Assay Plate. • ▪ Compounds are diluted 1000 fold in the Black Assay Plate. • ▪ Each plate is designed for 14 compounds in duplicate. ∘ In the final Black Assay Plate: […]

Question: With “(2S,6S)-2-chloro-2'-cyclopropyl-6'-methyl-spiro[4,5-dihydrothieno[2,3-c]pyran-7,4'-piperidine] [Compound 211]” as the substance, how does the IC50 (APOL1 G1 [1]) read?
Answer: < 0.05 µM

Question: What about the IC90 (APOL1 G1 [1]) of the same substance?
Answer: 0.05 to 0.5 µM

Question: And the IC50 (APOL1 G1 [2])?
Answer: 0.05 to 0.5 µM

Question: Which IC50 (APOL1 G1 [1]) does the source give for “2-chloro-2'-ethyl-6'-(1-methyltriazol-4-yl)spiro[4,5-dihydrothieno[2,3-c]pyran-7,4'-piperidine] [Compound 186]” here?
Answer: < 0.05 µM

Question: And the IC90 (APOL1 G1 [1])?
Answer: 0.05 to 0.5 µM

Question: And the IC50 (APOL1 G1 [2])?
Answer: 0.05 to 0.5 µM

Question: How did the IC50 (APOL1 G1 [1]) turn out when “(2S)-2-chloro-2'-methyl-6'-(1-methylpyrazol-4-yl)spiro[4,5-dihydrothieno[2,3-c]pyran-7,4'-piperidine]-4-ol [Compound 175]” was run?
Answer: < 0.05 µM

Question: And the IC90 (APOL1 G1 [1])?
Answer: < 0.05 µM

Question: What about the IC50 (APOL1 G1 [2]) of the same substance?
Answer: < 0.05 µM

Question: Which IC50 (APOL1 G1 [1]) does the source give for “2'-ethyl-6'-(1-methyltriazol-4-yl)-2-(trifluoromethyl)spiro[4,5-dihydrothieno[2,3-c]pyran-7,4'-piperidine] [Compound 187]” here?
Answer: < 0.05 µM

Question: What about the IC90 (APOL1 G1 [1]) of the same substance?
Answer: < 0.05 µM

Question: What about the IC50 (APOL1 G1 [2]) of the same substance?
Answer: 0.05 to 0.5 µM
